This note sets out measurements from patent US20130071854A1, “METHODS FOR THE IDENTIFICATION AND CHARACTERIZATION OF HDAC INTERACTING COMPOUNDS” (priority 2009, published 2013).

Like-named read-outs stand apart in the source and are kept apart here.

Test [1] has as its system acetylated histones H3 and H4. Nature of the test: Cell-based histone acetylation assay (immunofluorescence, western blotting). Details: species or system human. Particulars: K562 and HeLa cells. Background: A western blot detects proteins with antibodies after separation by electrophoresis.
The next test concerns CoREST complex. Nature of the test: Chemoproteomic binding profiling, K562 cell extract, SAHA/ITF2357 probe matrix (Kd app). Details: species or system human.
Another test addresses T1, HDAC1 (Homo sapiens, UniProt Q13547).
T1 construct: used to probe endogenous HDACs in K562 whole cell extracts; endogenous in cells
Described as above. Particulars: protein HDAC1; class I HDAC; read-out: Kd^app HDAC1.

For a further test, the system named is MIER3. Nature of the test: Chemoproteomic binding profiling, K562 cell extract, SAHA/ITF2357 probe matrix (Kd app), ELSA (ELM-SANT) domain protein. Further details: species or system human. Conditions: ELSA (ELM-SANT) domain proteins.
The next test addresses T2, HDAC6 (Homo sapiens, UniProt Q9UBN7).
T2 sequence (Q9UBN7 1-1215): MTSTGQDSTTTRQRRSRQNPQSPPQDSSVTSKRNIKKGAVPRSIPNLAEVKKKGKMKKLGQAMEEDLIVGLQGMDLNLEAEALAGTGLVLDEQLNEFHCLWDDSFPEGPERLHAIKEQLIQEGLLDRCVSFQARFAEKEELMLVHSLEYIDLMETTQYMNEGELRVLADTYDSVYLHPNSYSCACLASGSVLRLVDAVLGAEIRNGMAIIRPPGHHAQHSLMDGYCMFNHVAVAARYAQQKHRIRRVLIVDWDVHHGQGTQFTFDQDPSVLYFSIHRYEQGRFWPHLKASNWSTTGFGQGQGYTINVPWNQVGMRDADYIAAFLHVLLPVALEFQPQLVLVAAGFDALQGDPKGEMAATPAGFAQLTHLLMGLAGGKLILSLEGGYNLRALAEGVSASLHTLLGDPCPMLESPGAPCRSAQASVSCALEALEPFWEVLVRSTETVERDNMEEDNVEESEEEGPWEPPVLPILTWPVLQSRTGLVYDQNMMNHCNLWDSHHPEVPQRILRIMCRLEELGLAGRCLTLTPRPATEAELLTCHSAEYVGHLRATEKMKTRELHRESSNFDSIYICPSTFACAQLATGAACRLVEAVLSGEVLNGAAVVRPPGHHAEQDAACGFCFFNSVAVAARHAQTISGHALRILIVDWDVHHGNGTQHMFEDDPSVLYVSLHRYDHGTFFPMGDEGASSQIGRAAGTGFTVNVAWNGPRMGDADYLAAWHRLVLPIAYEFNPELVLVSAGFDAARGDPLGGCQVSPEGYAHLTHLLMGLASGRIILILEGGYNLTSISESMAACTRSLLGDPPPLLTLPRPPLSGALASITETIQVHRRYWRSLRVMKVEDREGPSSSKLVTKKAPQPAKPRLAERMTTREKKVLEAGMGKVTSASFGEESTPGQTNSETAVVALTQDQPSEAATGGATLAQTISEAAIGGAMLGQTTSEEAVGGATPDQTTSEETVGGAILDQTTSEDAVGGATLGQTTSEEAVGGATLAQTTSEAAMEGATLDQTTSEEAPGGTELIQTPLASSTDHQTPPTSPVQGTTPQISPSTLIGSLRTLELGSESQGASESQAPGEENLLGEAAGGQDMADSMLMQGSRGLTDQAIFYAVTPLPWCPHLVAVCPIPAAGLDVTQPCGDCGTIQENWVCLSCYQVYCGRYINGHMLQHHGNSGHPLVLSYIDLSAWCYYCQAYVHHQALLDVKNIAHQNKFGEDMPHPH
Put plainly: Chemoproteomic binding profiling, K562 cell extract, SAHA/ITF2357 probe matrix (Kd app). Further details: used to probe endogenous HDACs in K562 whole cell extracts; endogenous in cells. Conditions: for binding profile for HDAC6 (in words): K562 cell extract.

The target of test [2] is T3, non-HDAC targets (e.g. BZW2, ISOC2, aldehyde dehydrogenases) (Homo sapiens, UniProt Q9Y6E2).
T3 construct: endogenous in cells; host or cells: K562 whole cell extract
T3 sequence (Q9Y6E2 1-419): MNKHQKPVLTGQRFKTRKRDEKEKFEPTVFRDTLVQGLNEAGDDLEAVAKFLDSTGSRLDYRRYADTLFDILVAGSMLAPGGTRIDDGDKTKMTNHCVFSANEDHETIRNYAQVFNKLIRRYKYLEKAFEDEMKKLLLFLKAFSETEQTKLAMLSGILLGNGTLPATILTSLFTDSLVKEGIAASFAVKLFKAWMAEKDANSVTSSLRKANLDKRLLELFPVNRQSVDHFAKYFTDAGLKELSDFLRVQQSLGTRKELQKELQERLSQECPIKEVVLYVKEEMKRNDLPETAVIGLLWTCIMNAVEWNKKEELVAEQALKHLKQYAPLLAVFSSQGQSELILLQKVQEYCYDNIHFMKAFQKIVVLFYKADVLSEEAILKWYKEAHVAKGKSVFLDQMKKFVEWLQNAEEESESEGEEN
The description is as above. Particulars: protein BZW2; selected HDACi off-targets.

Test [3] addresses T4, non-HDAC targets (e.g. BZW2, ISOC2, aldehyde dehydrogenases) (Homo sapiens, UniProt Q08209).
T4 construct: Kd^app PPP3CA; other: protein PPP3CA; selected HDACi off-targets
Described as above. Conditions: protein PPP3CA; selected HDACi off-targets.

Test [4] concerns the target T5, non-HDAC targets (e.g. BZW2, ISOC2, aldehyde dehydrogenases) (Homo sapiens, UniProt P16152).
T5 construct: Kd^app CBR1; other: protein CBR1; selected HDACi off-targets
T5 sequence (P16152 1-277): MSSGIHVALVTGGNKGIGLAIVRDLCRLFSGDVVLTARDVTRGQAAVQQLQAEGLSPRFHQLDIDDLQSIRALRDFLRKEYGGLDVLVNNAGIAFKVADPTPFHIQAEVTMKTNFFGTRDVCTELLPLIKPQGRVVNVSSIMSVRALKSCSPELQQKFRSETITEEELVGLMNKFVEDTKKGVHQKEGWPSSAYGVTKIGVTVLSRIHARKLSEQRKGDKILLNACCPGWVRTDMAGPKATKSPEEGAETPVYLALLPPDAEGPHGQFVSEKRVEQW
The test is described as above. Conditions: protein CBR1; selected HDACi off-targets.

[5] abbreviates: protein GSE1, CoREST complex, read-out: Kd^app GSE1.
Setting [6] is: protein HMG20A, CoREST complex, read-out: Kd^app HMG20A.
Where [7] appears, read: protein HMG20B, CoREST complex, read-out: Kd^app HMG20B.
Where [8] appears, read: protein RCOR1, CoREST complex, read-out: Kd^app RCOR1.
The mark [9] stands for this setting: protein RCOR2, CoREST complex, read-out: Kd^app RCOR2.
[10] abbreviates: protein RCOR3, CoREST complex, read-out: Kd^app RCOR3.
Where [11] appears, read: protein ZMYM2, CoREST complex, read-out: Kd^app ZMYM2.
The mark [12] stands for this setting: protein ZMYM3, CoREST complex, read-out: Kd^app ZMYM3.
[13] abbreviates: protein HDAC6, class II HDAC, read-out: Kd^app HDAC6.

T1 sequence (Q13547 whole entry): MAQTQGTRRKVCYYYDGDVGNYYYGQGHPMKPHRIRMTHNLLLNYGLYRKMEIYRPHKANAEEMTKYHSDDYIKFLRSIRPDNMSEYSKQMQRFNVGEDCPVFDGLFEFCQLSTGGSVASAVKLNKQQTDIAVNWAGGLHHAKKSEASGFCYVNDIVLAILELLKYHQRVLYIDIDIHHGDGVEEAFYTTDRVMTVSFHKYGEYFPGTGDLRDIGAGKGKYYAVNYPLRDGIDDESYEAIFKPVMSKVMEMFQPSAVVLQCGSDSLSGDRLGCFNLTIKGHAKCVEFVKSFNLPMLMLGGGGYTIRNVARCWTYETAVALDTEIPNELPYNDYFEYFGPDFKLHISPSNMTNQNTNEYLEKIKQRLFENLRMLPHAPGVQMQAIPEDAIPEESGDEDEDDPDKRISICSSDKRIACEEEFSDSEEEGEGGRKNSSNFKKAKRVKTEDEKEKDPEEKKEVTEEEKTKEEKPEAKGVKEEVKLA

Consider `CCCCOc1ccc(CC(=O)NO)cc1` [bufexamac], for which the “histone acetylation (in words)” value in test [1] was “did not affect the acetylation of histones”. The Kd with CoREST complex (setting [5]), in the test with CoREST complex (setting [6]), with CoREST complex (setting [7]), in the test on CoREST complex (setting [8]), in the test on CoREST complex (setting [9]) and with CoREST complex (setting [10]) was above 59.7 µM throughout. Also, the Kd in the test with CoREST complex (setting [11]) is 128 µM; in the test on CoREST complex (setting [12]), 172 µM; at HDAC1, above 59.7 µM; in the test with MIER3, 165 µM; on HDAC6 (setting [13]) it was 10 µM; in test [2] it was 3 µM. Besides, the Kd in test [3] came to 304 µM; in test [4], 149 µM. Besides, the “binding profile for HDAC6 (in words)” value on HDAC6 was “selectivity for HDAC6 and HDAC10”.
Turning to `O=C(CCCCCCC(=O)Nc1ccccc1)NO` [SAHA, suberoylanilide hydroxamic acid], the “histone acetylation (in words)” value in test [1] is “increased steady state acetylation of tubulin and histones”. In addition, the Kd in test [3] and in test [4] was above 10 µM in each case.
For `CCCC(CCC)C(=O)O` [valproate, valproic acid], in test [1], the “histone acetylation (in words)” value is recorded as “elicited staining of acetylated histones”. The Kd in the test with CoREST complex (setting [5]) is 224 µM; in the test on CoREST complex (setting [6]) it was 322 µM; in the test on CoREST complex (setting [7]), 380 µM; in the test with CoREST complex (protein PHF21A, CoREST complex, read-out: Kd^app PHF21A), 438 µM; in the test on CoREST complex (setting [8]) it was 258 µM; in the test with CoREST complex (setting [9]) it was 311 µM. Besides, the Kd is 274 µM in the test on CoREST complex (setting [10]); 700 µM in the test on CoREST complex (setting [11]); 922 µM in the test with CoREST complex (setting [12]); 358 µM on HDAC1; 344 µM with MIER3; above 10 µM on HDAC6 (read-out: Kd^app HDAC6, protein HDAC6, class II HDAC). Further, the Kd in test [2], in test [3] and in test [4] was above 10 µM each time.
For `Nc1ccccc1NC(=O)c1ccc(CNC(=O)OCc2cccnc2)cc1` [MS-275], the Kd in the test on CoREST complex (read-out: Kd^app GSE1), with CoREST complex (read-out: Kd^app HMG20A), in the test with CoREST complex (read-out: Kd^app HMG20B), in the test with CoREST complex (read-out: Kd^app PHF21A), in the test with CoREST complex (read-out: Kd^app RCOR1) and in the test with CoREST complex (read-out: Kd^app RCOR2) was above 300 µM throughout. Further, the Kd (in the test with CoREST complex (read-out: Kd^app RCOR3); with CoREST complex (read-out: Kd^app ZMYM2); with CoREST complex (read-out: Kd^app ZMYM3); with MIER3; in test [2]; in test [3]) was above 300 µM throughout. Also, the Kd in test [4] is above 300 µM.
For the compound `Nc1ccccc1NC(=O)CCCCCCC(=O)Nc1ccccc1` [BML-210], the Kd in the test on CoREST complex (setting [5]) came out at 51 µM; in the test on CoREST complex (setting [6]), 40 µM; with CoREST complex (setting [7]), 50 µM; in the test with CoREST complex (setting [8]), 46 µM; in the test on CoREST complex (setting [9]), 85 µM; with CoREST complex (setting [10]), 55 µM. For the same compound, the Kd is above 85 µM with CoREST complex (setting [11]); above 85 µM in the test with CoREST complex (setting [12]); 36 µM on HDAC1; 47 µM in the test with MIER3; above 85 µM on HDAC6 (setting [13]); above 85 µM in test [2]. Moreover, the Kd in test [3] and in test [4] was above 85 µM throughout. Moreover, the “binding profile for HDAC6 (in words)” value on HDAC6 is reported as “complete loss of potency for class IIb”.
`O=C(/C=C/c1cccc(S(=O)(=O)Nc2ccccc2)c1)NO` [belinostat]: the Kd is 0.41 µM at HDAC6, 2.25 µM in test [2], 3.5 µM in test [3] and 1.98 µM in test [4].
